Assay results as given in patent US10889555B2, “Sulfonamide compound or salt thereof” (Taiho Pharmaceutical Co., Ltd., priority 2016, dated 2021).
Read-outs that look alike come from different tables or passages of the source.

Legend:
[1] = tested on: various cancer cell lines as described in Table 21; experiment: Cell proliferation inhibitory effect on human cancer-derived cancer cell lines (method of Test Example 2); assay type: cell-based
Protocol: Human derived breast cancer cell line HCC 1806 cells were daily passaged at a cell density not exceeding 80% in ATCC recommended Roswell Park Memorial Institute medium (RPMI-1640) containing 10% fetal bovine serum (FBS). In order to start the test of cell proliferation inhibitory activity, HCC 1806 cells were suspended in the above medium, after seeing at 180 μL in each well of a 96-well flat bottom plate so that the number of cells per well was 2,000, the cells were cultured at 37° C. for 1 day in an incubator containing 5% carbon dioxide gas. On the next day, the test compound was dissolved in DMSO, and 20 μL of a drug additive solution diluted serially with distilled water to 10 times of the final concentration was added to each well of the culture plate of the cells, and the cells were cultured at 37° C. for 72 hours in an incubator containing 5% carbon dioxide gas. After culturing for 72 hours, 20 μL of glutaraldehyde was added to each well and allowed to stand for 30 minutes, then the plate was washed 10 times with water and was dried. 100 μL of a stain solution (0.05% crystal violet in a 20% methanol solution) was added to each well and allowed to stand for 30 minutes, then the plate was washed 10 times with water and was dried. 100 μL of an extract solution (0.1 N NaH2PO4: 100% ethanol=1:1) was added to each well and mixed, and the mixture was measured at a wavelength of 540 nm using a plate reader (MTP-450 manufactured by Corona Electric Co., Ltd.). The growth inhibition rate was calculated from the following formula, and the concentration (IC50 (μM)) of a test compound inhibiting 50% was determined. Growth inhibition rate (%)={(C−B)−(T−B)}/(C−B)×100
According to the method of Test Example 2, the cell proliferation inhibitory effect on various cancer cell lines as described in Table 21 was evaluated.

HCC 1806 cells = experiment: Cell proliferation inhibitory effect on human breast cancer cell line (crystal violet, 72 hours); assay type: cell-based; details: read-out: Cell growth suppression IC50
In short: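 Cells were seeded at 2,000/well in RPMI-1640 with 10% FBS and grown 1 day, then exposed to compound for 72 h at 37° C, 5% CO2. After glutaraldehyde fixation and 0.05% crystal violet staining, extracted dye was read at 540 nm. IC50 (μM) came from growth inhibition relative to untreated and cell-free wells.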

[2] = A673, Ewing's sarcoma, 2000 cell/well, read-out: cell proliferation inhibitory effect, A673
[3] = A2780, Ovarian Cancer, 2000 cell/well, read-out: cell proliferation inhibitory effect, A2780
[4] = ACHN, Kidney Cancer, 2000 cell/well, read-out: cell proliferation inhibitory effect, ACHN
[5] = CFPAC-1, Pancreatic Cancer, 2000 cell/well, read-out: cell proliferation inhibitory effect, CFPAC-1
[6] = DU-145, DU145, Prostate Cancer, 5000 cell/well, read-out: cell proliferation inhibitory effect, DU145
[7] = GB-1, Glioblastoma, 3000 cell/well, read-out: cell proliferation inhibitory effect, GB-1
[8] = HCT-116, HCT116, Colorectal Cancer, 1000 cell/well, read-out: cell proliferation inhibitory effect, HCT116
[9] = HLE, Liver Cancer, 3000 cell/well, read-out: cell proliferation inhibitory effect, HLE
[10] = MSTO-211H, Mesothelioma, 6000 cell/well, read-out: cell proliferation inhibitory effect, MSTO-211H
[11] = NCI-H460, Lung Cancer, 1000 cell/well, read-out: cell proliferation inhibitory effect, NCI-H460
[12] = NCI-H2170, Lung Cancer, 5000 cell/well, read-out: cell proliferation inhibitory effect, NCI-H2170
[13] = NCI-H2228, Lung Cancer, 5000 cell/well, read-out: cell proliferation inhibitory effect, NCI-H2228
[14] = NUGC-3, Stomach Cancer, 2000 cell/well, read-out: cell proliferation inhibitory effect, NUGC-3
[15] = RPMI7932, Melanoma, 4000 cell/well, read-out: cell proliferation inhibitory effect, RPMI7932

| IC50 (HCC 1806 cells; Homo sapiens, HCC1806, 72 h) | Structure (SMILES) | IC50 [1, 2] | IC50 [1, 3] | IC50 [1, 4] | IC50 [1, 5] | IC50 [1, 6] | IC50 [1, 7] | IC50 [1, 8] | IC50 [1, 9] | IC50 [1, 10] | IC50 [1, 11] | IC50 [1, 12] | IC50 [1, 13] | IC50 [1, 14] | IC50 [1, 15] | IC50 (HCC 1806 cells) |
| --- | --- | --- | --- | --- | --- | --- | --- | --- | --- | --- | --- | --- | --- | --- | --- | --- |
|  | [2H]C([2H])([2H])C1(O)CCOc2c(S(=O)(=O)N[C@H](c3n[nH]c(=O)o3)[C@H](C)c3c(F)ccc(C)c3C)ccc(Cl)c21 (single isomer, unassigned) [Example 200A] | 180 nM | 130 nM | 130 nM | 170 nM | 170 nM | 370 nM | 220 nM | 140 nM | 170 nM | 130 nM | 490 nM | 500 nM | 270 nM | 430 nM | 50 nM |
|  | Cc1c(Cl)ccc(F)c1[C@@H](C)[C@H](NS(=O)(=O)c1ccc(Cl)c2c1OCCC2(C)O)c1n[nH]c(=O)o1 (single isomer, unassigned) [Example 209A] | 320 nM | 300 nM | 220 nM | 330 nM | 310 nM | 640 nM | 280 nM | 260 nM | 320 nM | 250 nM | 570 nM | 730 nM | 400 nM | 720 nM | 60 nM |
|  | Cc1c(Br)ccc(F)c1[C@@H](C)[C@H](NS(=O)(=O)c1ccc(Cl)c2c1OCCC2(C)O)c1n[nH]c(=O)o1 (single isomer, unassigned) [Example 222A] | 250 nM | 190 nM | 170 nM | 230 nM | 260 nM | 460 nM | 270 nM | 200 nM | 270 nM | 180 nM | 520 nM | 480 nM | 360 nM | 510 nM | 60 nM |
|  | Cc1ccc(F)c([C@@H](C)[C@H](NS(=O)(=O)c2ccc(Cl)c3c2OCCC3O)c2n[nH]c(=O)o2)c1C (single isomer, unassigned) [Example 235A] | 610 nM | 400 nM | 380 nM | 350 nM | 530 nM | 1120 nM | 480 nM | 420 nM | 390 nM | 350 nM | 1100 nM | 880 nM | 710 nM | 1230 nM | 130 nM |
| 160 nM | Cc1ccc(F)c([C@@H](C)[C@H](NS(=O)(=O)c2ccc(Br)cc2C(N)=O)c2n[nH]c(=O)o2)c1C [Example 1, 5-bromo-2-(N-((1 S,2R)-2-(6-fluoro-2,3-dimethylphenyl)-1-(5-oxo-4,5-dihydro-1,3,4-oxadiazol-2-yl)propyl)sulfamoyl)benzamide] | 920 nM | 630 nM | 680 nM | 540 nM | 730 nM | 1560 nM | 750 nM | 560 nM | 650 nM | 570 nM | 1410 nM | 1350 nM | 1120 nM | 1740 nM |  |
| 200 nM | Cc1ccc(F)c([C@@H](C)[C@H](NS(=O)(=O)c2ccc(Cl)cc2C(N)=O)c2n[nH]c(=O)o2)c1C [Example 5] | 1090 nM | 830 nM | 750 nM | 940 nM | 1040 nM | 1570 nM | 910 nM | 790 nM | 700 nM | 730 nM | 1890 nM | 1270 nM | 1220 nM | 2670 nM |  |
| 990 nM | COc1cc(Cl)ccc1S(=O)(=O)N[C@H](c1n[nH]c(=O)o1)[C@H](C)c1c(F)ccc(-c2cn[nH]c2)c1C [Example 303, 4-chloro-N-((1S,2R)-2-(6-fluoro-2-methyl-3-(1H-pyrazol-4-yl)phenyl)-1-(5-oxo-4,5-dihydro-1,3,4-oxadiazol-2-yl)propyl)-2-methoxybenzenesulfonamide] |  |  |  |  |  |  |  |  |  |  |  |  |  |  |  |
| 940 nM | COc1cc(Cl)ccc1S(=O)(=O)N[C@H](c1n[nH]c(=O)o1)[C@H](C)c1c(F)ccc(-c2cnn(C(F)F)c2)c1C [Example 304, 4-chloro-N-((1S,2R)-2-(3-(1-(difluoromethyl)-1H-pyrazol-4-yl)-6-fluoro-2-methylphenyl)-1-(5-oxo-4,5-dihydro-1,3,4-oxadiazol-2-yl)propyl)-2-methoxybenzenesulfonamide] |  |  |  |  |  |  |  |  |  |  |  |  |  |  |  |
| 870 nM | COc1cc(Cl)ccc1S(=O)(=O)N[C@H](c1n[nH]c(=O)o1)[C@H](C)c1c(F)ccc(-c2c[nH]nc2C)c1C [Example 308, 4-chloro-N-((1S,2R)-2-(6-fluoro-2-methyl-3-(3-methyl-1H-pyrazol-4-yl)phenyl)-1-(5-oxo-4,5-dihydro-1,3,4-oxadiazol-2-yl)propyl)-2-methoxybenzenesulfonamide] |  |  |  |  |  |  |  |  |  |  |  |  |  |  |  |
| 350 nM | CCn1cc(-c2ccc(F)c([C@@H](C)[C@H](NS(=O)(=O)c3ccc(Cl)cc3OC)c3n[nH]c(=O)o3)c2C)cn1 [Example 310, 4-chloro-N-((1S,2R)-2-(3-(1-ethyl-1H-pyrazol-4-yl)-6-fluoro-2-methylphenyl)-1-(5-oxo-4,5-dihydro-1,3,4-oxadiazol-2-yl)propyl)-2-methoxybenzenesulfonamide] |  |  |  |  |  |  |  |  |  |  |  |  |  |  |  |
| 520 nM | COc1cc(Cl)ccc1S(=O)(=O)N[C@H](c1n[nH]c(=O)o1)[C@H](C)c1c(F)ccc(-c2cnn(C3CC3)c2)c1C [Example 311, 4-chloro-N-((1S,2R)-2-(3-(1-cyclopropyl-1H-pyrazol-4-yl)-6-fluoro-2-methylphenyl)-1-(5-oxo-4,5-dihydro-1,3,4-oxadiazol-2-yl)propyl)-2-methoxybenzenesulfonamide] |  |  |  |  |  |  |  |  |  |  |  |  |  |  |  |
| 870 nM | COc1cc(Cl)ccc1S(=O)(=O)N[C@H](c1n[nH]c(=O)o1)[C@H](C)c1c(F)ccc(-c2cnn(C3CCC3)c2)c1C [Example 312, 4-chloro-N-((1S,2R)-2-(3-(1-cyclobutyl-1H-pyrazol-4-yl)-6-fluoro-2-methylphenyl)-1-(5-oxo-4,5-dihydro-1,3,4-oxadiazol-2-yl)propyl)-2-methoxybenzenesulfonamide] |  |  |  |  |  |  |  |  |  |  |  |  |  |  |  |
| 930 nM | COc1cc(Cl)ccc1S(=O)(=O)N[C@H](c1n[nH]c(=O)o1)[C@H](C)c1c(F)ccc(-c2ccc(N3CCOCC3)nc2)c1C [Example 315, 4-chloro-N-((1S,2R)-2-(6-fluoro-2-methyl-3-(6-morpholinopyridin-3-yl)phenyl)-1-(5-oxo-4,5-dihydro-1,3,4-oxadiazol-2-yl)propyl)-2-methoxybenzenesulfonamide] |  |  |  |  |  |  |  |  |  |  |  |  |  |  |  |
| 240 nM | Cc1c(Br)ccc(F)c1[C@@H](C)[C@H](NS(=O)(=O)c1ccc(Cl)c2c1OCCC2(C)N)c1n[nH]c(=O)o1 (stereo partly drawn) [Example 329, 4-amino-N-((1S,2R)-2-(3-bromo-6-fluoro-2-methylphenyl)-1-(5-oxo-4,5-dihydro-1,3,4-oxadiazol-2-yl)propyl)-5-chloro-4-methyl-chroman-8-sulfonamide] |  |  |  |  |  |  |  |  |  |  |  |  |  |  |  |
| 300 nM | Cc1ccc(F)c([C@@H](C)[C@@H](c2n[nH]c(=O)o2)N(C)S(=O)(=O)c2ccc(Cl)cc2C(N)=O)c1C [Example 337, 5-chloro-2-(N-((1S,2R)-2-(6-fluoro-2,3-dimethylphenyl)-1-(5-oxo-4,5-dihydro-1,3,4 oxadiazol-2-yl)propyl)-N-methylsulfamoyl)benzamide] |  |  |  |  |  |  |  |  |  |  |  |  |  |  |  |

| Structure (SMILES) | IC50 (HCC 1806 cells; Homo sapiens, HCC1806, 72 h) | IC50 [1, 2] | IC50 [1, 3] | IC50 [1, 4] | IC50 [1, 5] | IC50 [1, 6] | IC50 [1, 7] | IC50 [1, 8] | IC50 [1, 9] | IC50 [1, 10] | IC50 [1, 11] | IC50 [1, 12] | IC50 [1, 13] | IC50 [1, 14] | IC50 [1, 15] | IC50 (HCC 1806 cells) |
| --- | --- | --- | --- | --- | --- | --- | --- | --- | --- | --- | --- | --- | --- | --- | --- | --- |
| [2H]C([2H])([2H])C1(O)CCOc2c(S(=O)(=O)N[C@H](c3n[nH]c(=O)o3)[C@H](C)c3c(F)ccc(Cl)c3C)ccc(Cl)c21 (single isomer, unassigned) [Example 228A] | 140 nM | 400 nM | 380 nM | 320 nM | 360 nM | 340 nM | 850 nM | 380 nM | 290 nM | 370 nM | 310 nM | 880 nM | 740 nM | 510 nM | 650 nM |  |
